Compound in one assay: CCN1CCN(Cc2ccc(Nc3ncc(F)c(-c4cc(F)c5nc(C)n(C(C)C)c5c4)n3)nc2)CC1
Nature of the assay: GR value, 72 h; higher = faster growth (1 = untreated, <0 = killing).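 Also: breast cancer and non-malignant breast epithelial lines, nine half-log doses, viable cells counted by Hoechst and LIVE/DEAD dye imaging versus time-zero plates and DMSO controls.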 To be noted: 0.1 µM.
On to BT20, for which the GR value was determined as 0.331 GR.

BT474: the GR value is 0.62 GR.

Take BT549: the GR value stood at 0.952 GR.

Turning to CAL51, the GR value turned out to be 0.501 GR.

Take CAL120: the GR value was determined as 0.609 GR.

CAMA1: the GR value came out at 0.257 GR.

The assay is the same for the next values; noted with them: 0.3162 µM.
With BT20, the GR value amounted to 0.264 GR.

In the case of BT474, the GR value was 0.536 GR.

In the case of BT549, the GR value was determined as 0.963 GR.

Consider CAL51, for which the GR value stood at 0.365 GR.

As to CAL120, the GR value came out at 0.594 GR.

As for CAMA1, the GR value came to 0.278 GR.

Still in this assay, the particulars now being: 1 µM.
Consider BT20, for which the GR value was found to be 0.231 GR.

As to BT474, the GR value was 0.577 GR.

As to BT549, the GR value is 0.895 GR.

For CAL51, the GR value was found to be 0.207 GR.

With CAL120, the GR value came to 0.377 GR.

As to CAMA1, the GR value is 0.285 GR.

Still in this assay, the particulars now being: 3.162 µM.
Consider BT20, for which the GR value was 0.163 GR.

Consider BT474, for which the GR value was determined as 0.696 GR.

In the case of BT549, the GR value came to 0.588 GR.

As to CAL51, the GR value is -0.124 GR.

On to CAL120, for which the GR value was -0.0553 GR.

With CAMA1, the GR value worked out at 0.286 GR.

Staying with this assay, now noted: 10 µM.
Turning to BT20, the GR value was -0.21 GR.

Consider BT474, for which the GR value was 0.274 GR.

BT549: the GR value amounted to 0.0335 GR.

For CAL51, the GR value is -0.46 GR.

Turning to CAL120, the GR value was -0.138 GR.

On to CAMA1, for which the GR value came to 0.223 GR.

Compound in the next assay: CCc1cnn2c(NCc3ccc[n+]([O-])c3)cc(N3CCCC[C@H]3CCO)nc12
The assay is described as above. To be noted: 0.0001 µM.
Regarding BT20, the GR value was 0.951 GR.

For BT474, the GR value was 1.02 GR.

Turning to BT549, the GR value was determined as 0.971 GR.

Turning to CAL51, the GR value came to 0.999 GR.

On to CAL120, for which the GR value is 1.01 GR.

Regarding CAMA1, the GR value is 0.942 GR.

The assay is the same for the next values; noted with them: 0.0003162 µM.
As for BT20, the GR value was determined as 1.01 GR.

Take BT474: the GR value was 0.963 GR.

Consider BT549, for which the GR value was determined as 1.02 GR.

Consider CAL51, for which the GR value amounted to 0.954 GR.

Consider CAL120, for which the GR value was 0.995 GR.

For the cell line CAMA1, the GR value turned out to be 1.05 GR.

The assay is the same for the next values; noted with them: 0.001 µM.
On to BT20, for which the GR value was 0.998 GR.

For the cell line BT474, the GR value was determined as 1.17 GR.

In the case of BT549, the GR value was determined as 1 GR.

In the case of CAL51, the GR value was 1.03 GR.

As to CAL120, the GR value came out at 1.03 GR.

Regarding CAMA1, the GR value is 1.01 GR.

Still in this assay, the particulars now being: 0.003162 µM.
With BT20, the GR value was determined as 1.1 GR.

As for BT474, the GR value turned out to be 1.12 GR.

Take BT549: the GR value came to 0.996 GR.

With CAL51, the GR value stood at 0.974 GR.

As for CAL120, the GR value came to 1.01 GR.

As to CAMA1, the GR value was 1 GR.

The assay is the same for the next values; noted with them: 0.01 µM.
Turning to BT20, the GR value amounted to 0.929 GR.

Regarding BT474, the GR value is 0.918 GR.

As to BT549, the GR value was determined as 0.698 GR.

As to CAL51, the GR value was determined as 0.831 GR.

In the case of CAL120, the GR value worked out at 0.495 GR.

With CAMA1, the GR value came to 0.725 GR.

Staying with this assay, now noted: 0.03162 µM.
Consider BT20, for which the GR value was -0.235 GR.

Turning to BT474, the GR value is -0.569 GR.

For the cell line BT549, the GR value is -0.221 GR.

In the case of CAL51, the GR value was -0.218 GR.

Regarding CAL120, the GR value is -0.0996 GR.

CAMA1: the GR value is -0.0614 GR.

The same assay, now with this note: 0.1 µM.
For BT20, the GR value was -0.645 GR.

As to BT474, the GR value was -0.753 GR.

In the case of BT549, the GR value was -0.261 GR.

Turning to CAL51, the GR value was -0.356 GR.

As for CAL120, the GR value was -0.125 GR.

As to CAMA1, the GR value is -0.386 GR.

The assay is the same for the next values; noted with them: 0.3162 µM.
Consider BT20, for which the GR value was -0.672 GR.

As to BT474, the GR value is -0.769 GR.

With BT549, the GR value is -0.275 GR.

As for CAL51, the GR value is -0.355 GR.

As for CAL120, the GR value is -0.129 GR.

Turning to CAMA1, the GR value was -0.417 GR.

Still in this assay, the particulars now being: 1 µM.
For BT20, the GR value is -0.698 GR.

As for BT474, the GR value was -0.75 GR.

Consider BT549, for which the GR value is -0.293 GR.

Take CAL51: the GR value was -0.341 GR.

CAL120: the GR value was -0.116 GR.

Take CAMA1: the GR value was -0.494 GR.

Compound in a further assay: CN(C)C(=O)c1cc2cnc(Nc3ccc(N4CCNCC4)cn3)nc2n1C1CCCC1 [LEE011/Ribociclib]
The description is as above. To be noted: 0.001 µM.
BT20: the GR value was determined as 0.818 GR.

With BT474, the GR value was found to be 0.773 GR.

Turning to BT549, the GR value was found to be 0.972 GR.

As for CAL51, the GR value was found to be 0.899 GR.

For the cell line CAL120, the GR value was found to be 0.879 GR.

With CAMA1, the GR value is 0.721 GR.

Staying with this assay, now noted: 0.003162 µM.
For the cell line BT20, the GR value was 0.759 GR.

For the cell line BT474, the GR value worked out at 0.676 GR.

Consider BT549, for which the GR value is 1.06 GR.

CAL51: the GR value turned out to be 0.874 GR.

As for CAL120, the GR value was determined as 0.818 GR.

For the cell line CAMA1, the GR value came out at 0.549 GR.

The same assay, now with this note: 0.01 µM.
BT20: the GR value came out at 0.624 GR.

In the case of BT474, the GR value turned out to be 0.849 GR.

Regarding BT549, the GR value was 0.919 GR.

For CAL51, the GR value stood at 0.808 GR.

Regarding CAL120, the GR value turned out to be 0.765 GR.

In the case of CAMA1, the GR value was found to be 0.365 GR.

The same assay, now with this note: 0.03162 µM.
With BT20, the GR value was found to be 0.672 GR.

As for BT474, the GR value came to 0.637 GR.

Take BT549: the GR value amounted to 0.997 GR.

Take CAL51: the GR value was found to be 0.772 GR.

In the case of CAL120, the GR value stood at 0.809 GR.

For the cell line CAMA1, the GR value turned out to be 0.492 GR.

Still in this assay, the particulars now being: 0.1 µM.
For BT20, the GR value stood at 0.651 GR.

For the cell line BT474, the GR value turned out to be 0.674 GR.

In the case of BT549, the GR value worked out at 1 GR.

On to CAL51, for which the GR value turned out to be 0.693 GR.

In the case of CAL120, the GR value was found to be 0.703 GR.

For the cell line CAMA1, the GR value amounted to 0.285 GR.

The same assay, now with this note: 0.3162 µM.
BT20: the GR value came to 0.49 GR.

Regarding BT474, the GR value is 0.447 GR.

With BT549, the GR value came to 0.995 GR.

Take CAL51: the GR value came out at 0.658 GR.

As to CAL120, the GR value was 0.732 GR.

With CAMA1, the GR value is 0.207 GR.

Staying with this assay, now noted: 1 µM.
For BT20, the GR value is 0.463 GR.

For the cell line BT474, the GR value stood at 0.532 GR.

Regarding BT549, the GR value worked out at 1 GR.

These data come from the supplement of paper PMC9663587.
